Experimental data published in PMC12080252, “Daphnia magna as an Alternative Model for (Simultaneous) Bioaccumulation and Chronic Toxicity Assessment—Controlled Exposure Study Indicates High Hazard of Heterocyclic PAHs” (Environmental Science & Technology, 2025).
Where “and” joins values, the source holds several entries; their conditions need not be identical. Equal values may be shown once.

Legend:
[1] = Chronic reproduction toxicity test (OECD 211) with passive dosing; format: in vivo, Daphnia magna; settings: Daphnia magna, in vivo, other: waterborne exposure by passive dosing from PDMS disks, 21-day test, read-out: % offspring mortality of total offspring
Experimental: (§1) Chronic toxicity tests with D. magna were performed according to the OECD guideline 211^2 using the passive dosing method. Two days before the tests, the exposure solution was predosed by shaking 10 PDMS disks loaded with the test substance in 1 L of medium for 48 h. Each test vessel (250 mL) was first flushed with the dosed solution to equilibrate the vessel walls, then filled with 100 mL of test solution, one PDMS disk, and one juvenile D. magna (<24 h old). The tests were conducted in loosely closed bottles to allow for adequate gas exchange and limit evaporation. The exposure medium was changed three times per week, and the animals were fed D. subspicatus daily (0.2 mg C/Daphnia/day). The number of offspring per adult and behavioral or physiological effects (e.g., size, movement, unhatched eggs) were recorded daily (except weekends). Dissolved oxygen, pH and temperature were also measured each week.
(§2) Tests were performed under static conditions (20 °C, 16:8 h light/dark cycle, 1 klux). Each compound was tested in 10 replicates for controls and limit tests (a single high concentration exposure to screen for significant toxic effects) and with 6 or 10 replicates for concentration–response tests. Reuse of silicone disks was included in some experiments (Table S3). Reproductive inhibition was assessed by counting offspring over 21 days. The number of offspring per mother in treatment groups was compared to controls, and the percent inhibition per replicate was used to generate concentration–response curves. A minimum of five concentrations per compound were tested to determine EC10, EC20, and EC50 values. For each test, three sets of polymers were rotated between loading, dosing, and exposure stages (Figure S2). Initial (before animal and food addition) and final (after 2–3 days of exposure, just before the medium change) water concentrations (CW) were monitored, with the latter collected after centrifugation to remove biomass (e.g., algae, carapaces, or feces).
(§3) All data are presented as average ± standard deviation. Student’s t test was used to analyze significance (p-value >0.05 considered insignificant). Concentration–response curve parameters (effective concentrations and confidence limits) and plots were generated using GraphPad Prism software (V6.01, GraphPad Software, La Jolla, CA, USA). The exposure concentrations were log10 transformed before fitting. Then a four parameters logistic model with variable slope was used to obtain EC10, EC20 and EC50 (see section S5 in SI file for details). Effective chemical activities (EA50) for chronic toxicity were calculated as follows: [drawing 1] 1 […]
(§4) S5. Concentration-response curve (CRC) fitting procedure
(§5) GraphPad Prism version 9.5.1 was used to fit CRC and obtain EC10, EC20, EC50 values and their confidence intervals. The exposure concentrations were log10 transformed before fitting. Then a four parameters logistic model with variable slope was used that describes the response as a function of following four parameters: minimum response (the Bottom), maximum response (the Top), the concentration required to cause a response half-way between the minimum and maximum (the EC50) and the slope of the curve […]
(§6) concentration. The Top was constrained to 100, the Bottom was constrained to 0, the HillSlope was not […]
(§7) !"# %& = !"# %&* − , × !"# 3 * 4
(§8) (, + ,((!"# %&'(<=)×-.!!/!"01)
(§9) Figure S7 Concentration-response curves of four NSO-PAHs based on reproductive inhibition during 21-day chronic toxicity tests with D. magna.
(§10) (1 picture or pasted object on this page, not shown here)

Daphnia magna = test: as above; format: in vivo; settings: for Total #dead offspring per mother (per vessel) / Total #offspring per mother (per vessel) / % inhibition (per vessel): individual vessels; for EC10: 21-day reproduction inhibition; for wet weight of parent daphnids, change relative to control: end of 21-d exposure; for % inhibition, avr. / % inhibition (per vessel): reproduction vs controls
Experimental: as §1, §2, §3, §4, §5, §6, §7, §8, §9, §10

What does the source list for `c1ccc2c(c1)ccc1sc3ccccc3c12` [BNT, benzo[b]naphtho[1,2-d]thiophene]?
mortality at 21 days, 0.07 µg/L ([1]; 0.07 µg/L (Fig. S8)): 1.8%; mortality at 21 days, 0.25 µg/L ([1]; 0.25 µg/L (Fig. S8)): 11.1%; mortality at 21 days, 0.38 µg/L ([1]; 0.38 µg/L (Fig. S8)): 11.7%; mortality at 21 days, 0.81 µg/L ([1]; 0.81 µg/L (Fig. S8)): 14.8%; mortality at 21 days, 1.94 µg/L ([1]; 1.94 µg/L (Fig. S8)): 14.2%; mortality at 21 days, 4.63 µg/L ([1]; 4.63 µg/L (Fig. S8)): 20.8%; mortality at 21 days, 12 µg/L ([1]; 12.00 µg/L (Fig. S8)): 28%; #average live offspring (Daphnia magna; 0.07 µg/L, 21 days): 67; %offspring mortality (Daphnia magna; 0.07 µg/L, 21 days): 1.76%; #total live offspring (Daphnia magna; 0.07 µg/L, 21 days, all vessels without outlier): 334; Total #dead offspring per mother (per vessel) (Daphnia magna; 0.07 µg/L, 21 days): 0 and 2; #average live offspring (Daphnia magna; 0.25 µg/L, 21 days): 67; %offspring mortality (Daphnia magna; 0.25 µg/L, 21 days): 11.09%; #total live offspring (Daphnia magna; 0.25 µg/L, 21 days, all vessels): 401; Total #dead offspring per mother (per vessel) (Daphnia magna; 0.25 µg/L, 21 days): 8 and 14 and 9 and 6 and 5; #average live offspring (Daphnia magna; 0.38 µg/L, 21 days): 62; %offspring mortality (Daphnia magna; 0.38 µg/L, 21 days): 11.71%; #total live offspring (Daphnia magna; 0.38 µg/L, 21 days, all vessels without vessel 2 (X)): 309; Total #dead offspring per mother (per vessel) (Daphnia magna; 0.38 µg/L, 21 days): 9 and 16 and 10 and 5 and 1; #average live offspring (Daphnia magna; 0.81 µg/L, 21 days): 52; %offspring mortality (Daphnia magna; 0.81 µg/L, 21 days): 14.75%; #total live offspring (Daphnia magna; 0.81 µg/L, 21 days, all vessels): 312; Total #dead offspring per mother (per vessel) (Daphnia magna; 0.81 µg/L, 21 days): 10 and 9 and 3 and 24 and 5; EC10 (Daphnia magna; 97.5-2.5% confidence interval in brackets): 0.33 (0.12-0.73) μg L^-1; EC10 (Daphnia magna; confidence interval in brackets): 1.40 (0.49-3.10) nmol L^-1; growth of parent D. magna (wet weight) (Daphnia magna; 21-day test, p-value <0.05): significantly inhibited D. magna growth; LOEC (lowest observed effect concentration, reproduction inhibition) (Daphnia magna; 21 days, p-value <0.05 vs controls): 0.8 μg L^–1; Total #offspring per mother (per vessel) (Daphnia magna; BNT avr. medium concentration 0.25 µg/L (methanol dosing 0.063 g/L), 21 days): 81 and 73 and 58 and 64 and 61; Total #offspring per mother (per vessel) (Daphnia magna; BNT avr. medium concentration 0.38 µg/L (methanol dosing 0.125 g/L), 21 days): 66 and 55 and 82 and 54 and 52; Total #offspring per mother (per vessel) (Daphnia magna; BNT avr. medium concentration 0.81 µg/L (methanol dosing 0.25 g/L), 21 days): 40 and 59 and 60 and 34 and 57 and 62; EA50 (effective chemical activity) (Daphnia magna; EC50/subcooled liquid solubility, eq 1): 0.026 unitless; Classification according to REACH Annex XIII (Daphnia magna; chronic EC10 < 10 μg L^–1): toxic to aquatic life; CTLBB (critical target lipid body burden) (Daphnia magna; derived from chronic EC10 using eq 3): 0.8 μmol g^-1 octanol; wet weight of parent daphnids, change relative to control (Daphnia magna; 0.07 µg/L (Fig. S9)): -11%; wet weight of parent daphnids, change relative to control (Daphnia magna; 0.25 µg/L (Fig. S9)): -19%; wet weight of parent daphnids, change relative to control (Daphnia magna; 0.38 µg/L (Fig. S9)): -17%; wet weight of parent daphnids, change relative to control (Daphnia magna; 0.81 µg/L (Fig. S9)): -3%; wet weight of parent daphnids, change relative to control (Daphnia magna; 1.94 µg/L (Fig. S9)): +13%; wet weight of parent daphnids, change relative to control (Daphnia magna; 4.63 µg/L (Fig. S9)): -24%; % inhibition, avr. (Daphnia magna; 0.07 µg/L, 21 days): 1.3%; % inhibition (per vessel) (Daphnia magna; 0.07 µg/L, 21 days): -3.4% and -4.9% and -1.9% and 15.8% and 1.0%; % inhibition, avr. (Daphnia magna; 0.25 µg/L, 21 days): 1.3%; % inhibition (per vessel) (Daphnia magna; 0.25 µg/L, 21 days): -19.6% and -7.8% and 14.3% and 5.5% and 9.9%; % inhibition, avr. (Daphnia magna; 0.38 µg/L, 21 days): 8.7%; % inhibition (per vessel) (Daphnia magna; 0.38 µg/L, 21 days): 2.5% and 18.8% and -21.1% and 20.2% and 23.2%; % inhibition, avr. (Daphnia magna; 0.81 µg/L, 21 days): 23.2%; % inhibition (per vessel) (Daphnia magna; 0.81 µg/L, 21 days): 40.9% and 12.9% and 11.4% and 49.8% and 15.8% and 8.4%
